Laboratory results from patent publication US9393186B2, “Synthetic peptides useful in the treatment of the skin and use thereof in cosmetic or dermopharmaceutical compositions” (Lipotec, S.A., priority 2006, dated 2016).
Square brackets hold non-standard residues; d marks the D form. Ends that are not written are not given here. Cit = NC(=O)NCCC[C@H](N)C(=O)O; Orn = NCCC[C@H](N)C(=O)O; Nva = CCC[C@H](N)C(=O)O

Key:
fibrillogenesis = test: Regulation of fibrillogenesis by synthetic peptides; details: peptides complying with the [+,-,0,+] charge pattern; no method given
[1] = test system: EFT-200 three-dimensional human skin model; test: Collagen fibril diameter in EFT-200 three-dimensional human skin model (transmission electron microscopy); assay type: cell-based; details: for average of the diameters of the collagen fibrils observed: peptide 0.1 mg/mL in culture medium, changed daily for 14 days, untreated tissue 6.825 nm; for reduction of the diameter of the collagen fibers: peptide 0.1 mg/mL, 14 days, versus untreated tissue
Method: Starting from an EFT-200 three-dimensional human skin model (MatTek Corporation), the tissues were treated with H-Lys-Asp-Ile-Cit-NH2 and with H-Lys-Asp-Val-Cit-NH2 at a concentration of 0.1 mg/mL in culture medium. The latter was changed daily for 14 days, adding peptide at the same concentration in each change. On day 14, the tissues were fixed with a solution of 2% paraformaldehyde and 2.5% glutaraldehyde in 0.1M phosphate buffer, pH 7.4, for at least 2 hours at 4° C. The post-fixing was then carried out with 1% osmium tetroxide containing 0.8% potassium ferricyanide for 1 hour at 4° C. The tissues were then dehydrated in alcohols and were slowly included in epoxy resin (Spurr). The samples were cut and oriented correctly in the block, allowing them to polymerize for 48 hours at 60° C.

Substance | effect on fibrillogenesis (fibrillogenesis) | average of the diameters of the collagen fibrils observed [1] [nm] | reduction of the diameter of the collagen fibers [1] [%]
RELH | capable of regulating fibrillogenesis | – | –
[Orn]D[Nva]H | no effect on fibrillogenesis | – | –
H-KDI[Cit]-NH2 | – | 5.791 | 15.1
H-KDV[Cit]-NH2 | – | 5.774 | 15.5
His-Asp-Ala-Arg (HDAR; printed: His-Asp-Ala-Arg) [comparison peptide complying with the [+,-,0,+] charge pattern] | no effect on fibrillogenesis | – | –
His-Asp-Ile-His (HDIH; printed: His-Asp-Ile-His) [comparison peptide complying with the [+,-,0,+] charge pattern] | no effect on fibrillogenesis | – | –
